According to PMC7414797 (Nature, 2015):
In brackets after ≈: the same amount, converted by molar mass. Several values for one entry are separate records, joined by “and”; a condition that tells them apart may be missing. Equal values may be shown once. Read-outs that look alike come from different tables or passages of the source.

Experiments:
[1] = test system: Enterococcus faecalis; assay: MIC by broth microdilution; assay type: cell-based; conditions: for MIC Range: Enterococcus faecalis 50% VRE, 10 contemporary clinical isolates; for MIC90: Enterococcus faecalis, VRE
[2] = test system: Streptococcus pneumoniae; assay: MIC by broth microdilution; assay type: cell-based; conditions: for MIC90: Streptococcus pneumoniae, PRSP
[3] = test system: Streptococcus pyogenes; assay: MIC by broth microdilution; assay type: cell-based; conditions: for MIC90: Streptococcus pyogenes
[4] = test system: Viridans group streptococci; assay: MIC by broth microdilution; assay type: cell-based
[5] = test system: S. epidermidis; assay: MIC by broth microdilution; assay type: cell-based; conditions: for MIC90: Staphylococcus epidermidis
[6] = test system: Enterococcus faecium; assay: MIC by broth microdilution; assay type: cell-based; conditions: for MIC Range: E. faecium 50%VRE, 10 contemporary clinical isolates; for MIC90: Enterococcus faecium, VRE
[7] = test system: Staphylococcus aureus; assay: MIC by broth microdilution; assay type: cell-based; conditions: for MIC90: Staphylococcus aureus
[8] = test system: Streptococcus agalactiae; assay: MIC by broth microdilution; assay type: cell-based; conditions: for MIC90: Streptococcus agalactiae
[9] = test system: S. aureus MRSA ATCC33591; assay: Mouse sepsis protection model; assay type: in vivo, mice; conditions: MRSA septicemia, single i.v. dose 1 h post-infection, survival at 48 h
[10] = S. pyogenes, 10 contemporary clinical isolates
[11] = Viridans Group Streptococci, 5 isolates (S. sanguis, S. mitis, S. anginosus, S. intermedius, S. salivarius)
[12] = S. epidermidis, 20 contemporary clinical isolates
[13] = S. aureus Daptomycin^NS, 5 contemporary clinical isolates
[14] = S. aureus MRSA, 20 contemporary clinical isolates
[15] = S. aureus VISA, 10 contemporary clinical isolates
[16] = Staphylococcus aureus MSSA, 20 contemporary clinical isolates
[17] = S. agalactiae, 10 contemporary clinical isolates

| SMILES | MIC Range [1] [µg/mL] | MIC90 [1] [µg/mL] | MIC90 [2] [µg/mL] | MIC Range [3, 10] [µg/mL] | MIC90 [3] [µg/mL] | MIC Range [4, 11] [µg/mL] | MIC Range [5, 12] [µg/mL] | MIC90 [5] [µg/mL] | MIC Range [6] [µg/mL] | MIC90 [6] [µg/mL] | MIC Range [7, 13] [µg/mL] | MIC Range [7, 14] [µg/mL] | MIC Range [7, 15] [µg/mL] | MIC Range [7, 16] [µg/mL] | MIC90 ([7]; MRSA) [µg/mL] | MIC90 ([7]; MSSA) [µg/mL] | MIC90 ([7]; VISA) [µg/mL] | MIC Range [8, 17] [µg/mL] | MIC90 [8] [µg/mL] | other results |
| --- | --- | --- | --- | --- | --- | --- | --- | --- | --- | --- | --- | --- | --- | --- | --- | --- | --- | --- | --- | --- |
| CCCCCCCCCC(=O)N[C@@H](Cc1c[nH]c2ccccc12)C(=O)N[C@H](CC(N)=O)C(=O)N[C@@H](CC(=O)O)C(=O)N[C@@H]1C(=O)NCC(=O)N[C@@H](CCCN)C(=O)N[C@@H](CC(=O)O)C(=O)N[C@H](C)C(=O)N[C@@H](CC(=O)O)C(=O)NCC(=O)N[C@H](CO)C(=O)N[C@@H]([C@H](C)CC(=O)O)C(=O)N[C@@H](CC(=O)c2ccccc2N)C(=O)O[C@@H]1C [Daptomycin] | 0.12 to 8 | 0.5 (≈ 0.309 µM) | ≤ 0.03 | ≤0.03 to 0.06 | 0.06 (≈ 0.037 µM) | 0.06 to 0.25 | 0.06 to 0.25 | 0.25 (≈ 0.154 µM) | 0.5 to 1 | 1 (≈ 0.617 µM) | 2 to 8 | 0.12 to 0.25 | 0.25 to 1 | 0.12 to 0.25 | 0.25 (≈ 0.154 µM) | 0.25 (≈ 0.154 µM) | 1 (≈ 0.617 µM) | 0.06 to 0.25 | 0.12 (≈ 0.074 µM) | MIC Range ([7]; S. aureus Linezolid^R, 5 contemporary clinical isolates): 0.25 to 0.5 µg/mL |
| CC(=O)NC[C@H]1CN(c2ccc(N3CCOCC3)c(F)c2)C(=O)O1 [Linezolid] | 1 to 2 | 2 (≈ 5.93 µM) | 1 (≈ 2.96 µM) | 0.5 to 1 | 1 (≈ 2.96 µM) | 0.5 to 1 | 1 to 8 | 2 (≈ 5.93 µM) | 1 to 2 | 2 (≈ 5.93 µM) | 1 to 32 | 2 to 4 | 1 to 4 | 2 to 4 | 4 (≈ 11.9 µM) | 4 (≈ 11.9 µM) | 2 (≈ 5.93 µM) | 0.5 to 2 | 1 (≈ 2.96 µM) | – |
| CN[C@H](CC(C)C)C(=O)N[C@H]1C(=O)N[C@@H](CC(N)=O)C(=O)N[C@H]2C(=O)N[C@H]3C(=O)N[C@H](C(=O)N[C@H](C(=O)O)c4cc(O)cc(O)c4-c4cc3ccc4O)[C@H](O)c3ccc(c(Cl)c3)Oc3cc2cc(c3O[C@@H]2O[C@H](CO)[C@@H](O)[C@H](O)[C@H]2O[C@H]2C[C@](C)(N)[C@H](O)[C@H](C)O2)Oc2ccc(cc2Cl)[C@H]1O [Vancomycin, vancomycin] | – | > 32 | 0.25 (≈ 0.173 µM) | – | 0.25 (≈ 0.173 µM) | – | – | 2 (≈ 1.38 µM) | – | > 32 | – | – | – | – | 1 (≈ 0.69 µM) | 1 (≈ 0.69 µM) | 8 (≈ 5.52 µM) | – | 0.5 (≈ 0.345 µM) | MIC Range [2]: 0.12 to 0.5 µg/mL; MIC Range [3]: 0.25 µg/mL (≈ 0.173 µM); MIC Range [4]: 0.25 to 0.5 µg/mL; MIC Range [5]: 1 to 2 µg/mL; PD50 (protective dose at which half of the animals survive) [9]: 2.75 mg per kg; MIC Range [7]: 0.5 to 1 µg/mL and 0.5 to 2 µg/mL and 1 to 8 µg/mL and 0.5 to 8 µg/mL and 1 µg/mL; MIC Range [8]: 0.25 to 0.5 µg/mL |
